According to patent US20190343908A1, “Therapeutic Combination for the Treatment of Cancer” (Nerium Biotechnology Inc., priority 2011, published 2019):

How the values were obtained:
[1] = test system: HCT-15 (colorectal cancer); assay: Methyl-Tetrazolium viability assay, HCT-15; assay type: cell-based, human; parameters: key to MTT Average: absorbance (optical density) at 570 nm, second wavelength subtracted; conditions: for MTT Average 24 h / MTT Average 48 h / MTT Average 72 h: HCT-15, Run 1
From the text: (§1) Three different viability assays were chosen to complement each other and yielded results dependent on concentration and cell line: the Methyl Tetrazolium dye assay, the Sulforhodamine B fluorescent dye assay, and the Crystal Violet dye assay.
(§2) The Methyl-Tetrazolium dye assay measures the activity of enzymes in mitochondria. The dye precursor is taken up by cells, where it undergoes reduction to the purple formazan. It measures only the mitochondrial activity and, thus, it is not always a reliable indication of whether the cells themselves are alive or dead, since even a recently dead cell has […] enzyme activity in mitochondria. Intracellular glucose concentration, pH, and time before assay all affect the measurements.
(§3) The Methyl Tetrazolium, Sulforhodamine B, and Crystal Violet assays were used to assess cell viabilities. The incubation times were 24 hours, 48 hours, and 72 hours. The Nerium oleander extract Anvirzel™ (a hot water extract of oleander obtained from Salud Integral, Honduras) was tested in concentrations ranging from 0.01 ng/mL to 10 ng/mL.
(§4) Cells were detached by trypsinization (Trypsin-0.25% EDTA, Invitrogen, 25200-072) during the logarithmic phase of culture growth and plated in 96-well plates (18.000 cells/well) (Corning, Costar 359) in a final volume of 200 μl of medium per well. […] The absorbance was measured after 24 hours, 48 hours, and 72 hours of incubation.
(§5) For the Methyl-Tetrazolium assay, the dye (Sigma, M2128; 5 mg/mL, diluted in phosphate-buffered saline) was added to each well and plates were incubated for 3 hours at 37° C. After the end of the incubation period, the medium was discarded and the cells were rinsed with phosphate-buffered saline. Finally, the formazan crystals were dissolved in dimethylsulphoxide (Sigma, D4540).
(§6) The optical density of each plate was measured on a μQuant spectrophotometer and the data were analyzed with Gen5 software (μQuant Biomolecular Spectrophotometer MQX200 and Gen5™ Microplate Data Collection & Analysis software, BioTek® Instruments. Inc, April 2008). Absorbance was measured at 570 nm for all assays and a second wavelength was measured in order to subtract noise. For the Methyl-Tetrazolium assay this second wavelength was 630 nm and for the Sulforhodamine B and Crystal Violet assays it was 690 nm.

[2] = test system: COLO699N lung cancer cell line; assay: Methyl-Tetrazolium viability assay, COLO699N; assay type: cell-based, human; parameters: key to MTT Average: absorbance (optical density) at 570 nm, second wavelength subtracted; conditions: for Average MTT 24 h / Average MTT 48 h / Average MTT 72 h: COLO699N Run 1; for ABSORBANCE: COLO699N, 0.1 μg/mL cisplatin
From the text: as §1, §2, §3, §4, §5, §6

For `N.N.[Cl][Pt][Cl]` [cisplatin], the “MTT Average 24 h” value ([1]; 0.1 μg/ml CDDP) was 0.218, the “MTT Average 48 h” value ([1]; 0.1 μg/ml CDDP) was 0.324 and the “MTT Average 72 h” value ([1]; 0.1 μg/ml CDDP) was 0.464. For the same molecule, the “MTT Average 24 h” value ([1]; 1 μg/ml CDDP) was 0.032, the “MTT Average 48 h” value ([1]; 1 μg/ml CDDP) was 0.032 and the “MTT Average 72 h” value ([1]; 1 μg/ml CDDP) was 0.025. The “MTT Average 24 h” value ([1]; 10 μg/ml CDDP) was 0.1, the “MTT Average 48 h” value ([1]; 10 μg/ml CDDP) was 0.046 and the “MTT Average 72 h” value ([1]; 10 μg/ml CDDP) was 0.03. For the same molecule, the “MTT Average 24 h” value ([1]; 100 μg/ml CDDP) was 0.034, the “MTT Average 48 h” value ([1]; 100 μg/ml CDDP) was 0.023 and the “MTT Average 72 h” value ([1]; 100 μg/ml CDDP) was 0.017. For the same molecule, the “MTT Average” value ([1]; Run 2, 24 h, 0.1 μg/ml CDDP) was 0.141, the “MTT Average” value ([1]; Run 2, 24 h, 1 μg/ml CDDP) was 0.03 and the “MTT Average” value ([1]; Run 2, 24 h, 10 μg/ml CDDP) was 0.094. For the same molecule, the “MTT Average” value ([1]; Run 2, 24 h, 100 μg/ml CDDP) was 0.025, the “MTT Average” value ([1]; Run 2, 48 h, 0.1 μg/ml CDDP) was 0.233 and the “MTT Average” value ([1]; Run 2, 48 h, 1 μg/ml CDDP) was 0.031. For the same molecule, the “MTT Average” value ([1]; Run 2, 48 h, 10 μg/ml CDDP) was 0.067, the “MTT Average” value ([1]; Run 2, 48 h, 100 μg/ml CDDP) was 0.014 and the “MTT Average” value ([1]; Run 2, 72 h, 0.1 μg/ml CDDP) was 0.214. The “MTT Average” value ([1]; Run 2, 72 h, 1 μg/ml CDDP) was 0.016, the “MTT Average” value ([1]; Run 2, 72 h, 10 μg/ml CDDP) was 0.041 and the “MTT Average” value ([1]; Run 2, 72 h, 100 μg/ml CDDP) was 0.01. The “MTT Average” value ([1]; Run 3, 24 h, 0.1 μg/ml CDDP) was 0.294, the “MTT Average” value ([1]; Run 3, 24 h, 1 μg/ml CDDP) was 0.028 and the “MTT Average” value ([1]; Run 3, 24 h, 10 μg/ml CDDP) was 0.137. The “MTT Average” value ([1]; Run 3, 24 h, 100 μg/ml CDDP) was 0.039, the “MTT Average” value ([1]; Run 3, 48 h, 0.1 μg/ml CDDP) was 0.391 and the “MTT Average” value ([1]; Run 3, 48 h, 1 μg/ml CDDP) was 0.035. The “MTT Average” value ([1]; Run 3, 48 h, 10 μg/ml CDDP) was 0.104, the “MTT Average” value ([1]; Run 3, 48 h, 100 μg/ml CDDP) was 0.026 and the “MTT Average” value ([1]; Run 3, 72 h, 0.1 μg/ml CDDP) was 0.457. The “MTT Average” value ([1]; Run 3, 72 h, 1 μg/ml CDDP) was 0.039, the “MTT Average” value ([1]; Run 3, 72 h, 10 μg/ml CDDP) was 0.043 and the “MTT Average” value ([1]; Run 3, 72 h, 100 μg/ml CDDP) was 0.017. The “Average MTT 24 h” value ([2]; 0.1 μg/ml CDDP) was 0.122, the “Average MTT 48 h” value ([2]; 0.1 μg/ml CDDP, 48 h) was 0.179 and the “Average MTT 72 h” value ([2]; 0.1 μg/ml CDDP, 72 h) was 0.237. The “Average MTT 24 h” value ([2]; 1 μg/ml CDDP) was 0.023, the “Average MTT 48 h” value ([2]; 1 μg/ml CDDP, 48 h) was 0.016 and the “Average MTT 72 h” value ([2]; 1 μg/ml CDDP, 72 h) was 0.019. For the same molecule, the “Average MTT 24 h” value ([2]; 10 μg/ml CDDP) was 0.384, the “Average MTT 48 h” value ([2]; 10 μg/ml CDDP, 48 h) was 0.012 and the “Average MTT 72 h” value ([2]; 10 μg/ml CDDP, 72 h) was 0.016. The “Average MTT 24 h” value ([2]; 100 μg/ml CDDP) was 0.033, the “Average MTT 48 h” value ([2]; 100 μg/ml CDDP, 48 h) was 0.011 and the “Average MTT 72 h” value ([2]; 100 μg/ml CDDP, 72 h) was 0.014. The ABSORBANCE ([2]; 48 h) was 0.636, the ABSORBANCE ([2]; 72 h) was 0.73 and the “MTT Average” value ([2]; Run 2, 24 h, 0.1 μg/ml CDDP) was 0.362. For the same molecule, the “MTT Average” value ([2]; Run 2, 24 h, 1 μg/ml CDDP) was 0.055, the “MTT Average” value ([2]; Run 2, 24 h, 10 μg/ml CDDP) was 0.178 and the “MTT Average” value ([2]; Run 2, 24 h, 100 μg/ml CDDP) was 0.04. For the same molecule, the “MTT Average” value ([2]; Run 2, 48 h, 0.1 μg/ml CDDP) was 0.636, the “MTT Average” value ([2]; Run 2, 48 h, 1 μg/ml CDDP) was 0.04 and the “MTT Average” value ([2]; Run 2, 48 h, 10 μg/ml CDDP) was 0.049. For the same molecule, the “MTT Average” value ([2]; Run 2, 48 h, 100 μg/ml CDDP) was 0.018, the “MTT Average” value ([2]; Run 2, 72 h, 0.1 μg/ml CDDP) was 0.73 and the “MTT Average” value ([2]; Run 2, 72 h, 1 μg/ml CDDP) was 0.044. For the same molecule, the “MTT Average” value ([2]; Run 2, 72 h, 10 μg/ml CDDP) was 0.057, the “MTT Average” value ([2]; Run 2, 72 h, 100 μg/ml CDDP) was 0.068 and the “MTT Average” value ([2]; Run 3, 24 h, 0.1 μg/ml CDDP) was 0.365. The “MTT Average” value ([2]; Run 3, 24 h, 1 μg/ml CDDP) was 0.04, the “MTT Average” value ([2]; Run 3, 24 h, 10 μg/ml CDDP) was 0.148 and the “MTT Average” value ([2]; Run 3, 24 h, 100 μg/ml CDDP) was 0.041. The “MTT Average” value ([2]; Run 3, 48 h, 0.1 μg/ml CDDP) was 0.442, the “MTT Average” value ([2]; Run 3, 48 h, 1 μg/ml CDDP) was 0.063 and the “MTT Average” value ([2]; Run 3, 48 h, 10 μg/ml CDDP) was 0.041. For the same molecule, the “MTT Average” value ([2]; Run 3, 48 h, 100 μg/ml CDDP) was 0.025, the “MTT Average” value ([2]; Run 3, 72 h, 0.1 μg/ml CDDP) was 0.638 and the “MTT Average” value ([2]; Run 3, 72 h, 1 μg/ml CDDP) was 0.078. For the same molecule, the “MTT Average” value ([2]; Run 3, 72 h, 10 μg/ml CDDP) was 0.026 and the “MTT Average” value ([2]; Run 3, 72 h, 100 μg/ml CDDP) was 0.027.
